Values of other authors, collected in patent publication US20130143937A1, “CHLORTHALIDONE COMBINATIONS” (Boehringer Ingelheim International GmbH, priority 2003, published 2013).

Conditions: in vivo

mean plasma half-life	SMILES
about 24 hours	NS(=O)(=O)c1cc2c(cc1Cl)NCNS2(=O)=O [hydrochlorothiazide]
40 to 60 h	NS(=O)(=O)c1cc(C2(O)NC(=O)c3ccccc32)ccc1Cl (centres unmarked) [chlorthalidone, 2-chloro-5-(2,3-dihydro-1-hydroxy-3-oxo-1h-isoindol-1-yl)benzene-sulfonamide]
